Laboratory results published in paper PMC11983176 (ACS Omega, 2025).
Like-named read-outs stand apart in the source and are kept apart here. One block for each compound: values may come before it.

Experiments:
[1] = Stability in PBS and Tris-HCl buffer by UV-vis spectroscopy; format: physicochemical; conditions: PBS (0.1 M, pH 7.4) and Tris-HCl, 10% DMSO, room temperature, 5 min to 72 h
T47D = assay: MTT cytotoxicity assay, T47D; format: cell-based, human
MCF-7 [2] = assay: MTT cytotoxicity assay, MCF-7; format: cell-based, human; conditions: read-out: Cytotoxicity (IC50) MCF-7, 48 h of treatment
MCF-7 [3] = assay: Cell viability by cell adhesion assay; format: cell-based, human; conditions: MCF-7, 500 to 1.95 μM, 45 min

Compound: O=[N+]([O-])[O-].[Ag+] [silver nitrate]
stability in buffer solution [1]: precipitates appeared immediately

Compound: 1-Cyclopentyl-2,3-dihydro-1H-benzimidazole [compound 1]
IC50 (T47D; read-out: Cytotoxicity (IC50) T47D, MTT assay, 48 h of treatment): 41 ± 2.12 µM
IC50 (MCF-7 [2]): 37 ± 1.93 µM

stability in buffer solution [1]: precipitates appeared immediately
Compound: [Cl][Ag] [silver chloride]

Compound: CC/C(=C(\c1ccccc1)c1ccc(OCCN(C)C)cc1)c1ccccc1 [Tamoxifen]
IC50 (T47D; Homo sapiens, T47D, 48 h, read-out: Cytotoxicity (IC50) T47D, MTT assay, 48 h of treatment): 13 ± 0.71 µM
cell killing in adhesion assay (MCF-7 [3]): slightly less initial effects on MCF-7 cells
